Laboratory results taken from patent publication US6569638B1, “Method for screening compounds for the treatment of neoplasia” (Cell Pathways, Inc, priority 2000, dated 2003).
Where two headings read alike, the source gives them in different places.

Legend:
[1] = system: aberrant crypt foci (ACF); assay: Azoxymethane-induced aberrant crypt foci model; format: in vivo, male Fisher 344 rats; conditions: for % Control (ACF/colon) / Mean ACF/colon (+SE): free base; for Mean ACF/colon (+SE): 5 weeks
Procedure: The growth inhibition IC50 value obtained for Compound B was 0.7 μM in the SW-480 cell line. […] This established rodent model of azoxymethane (“AOM”)-induced carcinogenesis was used to assess the effects of Compound B (free base and salt) on colon cancer development in vivo. ACF are precursors to colonic tumors, and ACF inhibition is predictive of chemo-preventive efficacy.
In the rats in this experiment, ACF initiation was achieved by two consecutive weekly injections of the carcinogen. Compound B was administered one week prior to ACF initiation and for the duration of the experiment. ACFs were scored after 5 weeks of treatment. Compound B was administered orally to male Fisher 344 rats in the rat chow. Daily food consumption (mg/kg body weight) varied over the course of the study, and therefore Compound B dose was expressed a grams per kg of diet to provide a basis of comparison between doses. […] The experimental groups gained less weight than the controls, which was indicative of bioavailability. However, the weight differences were less than 10% and not considered to affect ACF formation.

[2] = format: in vivo; conditions: for body weight gain: rat, in vivo
Text: Thus, on a single-dose basis, Compound B is not acutely toxic.

[3] = Single, escalating dose human safety study; format: in vivo; conditions: oral
SW-480 cell line = assay: Tumor cell growth inhibition; format: cell-based, human
Text: In an alternate embodiment, the method of the present invention involves further determining whether the compound reduces the growth of tumor cells. Various cell lines can be used in the sample depending on the tissue to be tested. For example, these cell lines include: SW-480—colonic adenocarcinoma; HT-29—colonic adenocarcinoma, A-427—lung adenocarcinoma carcinoma; MCF-7—breast adenocarcinoma; and UACC-375—melanoma line; and DU145—prostrate carcinoma. Cytotoxicity data obtained using these cell lines are indicative of an inhibitory effect on neoplastic lesions. These cell lines are well characterized, and are used by the United States National Cancer Institute in their screening program for new anti-cancer drugs.
A compound's ability to inhibit tumor cell growth can be measured using the HT-29 human colon carcinoma cell line obtained from ATCC. […] After six days in culture, the cells are fixed by the addition of cold trichloroacetic acid to a final concentration of 10% and protein levels are measured using the sulforhodamine B (SRB) calorimetric protein stain assay as previously described by Skehan, P., Storeng, R., Scudiero, D., Monks, A., McMahon, J., Vistica, D., Warren, J. T., Bokesch, H., Kenney, S., and Boyd, M. R., “New Colorimetric Assay For Anticancer-Drug Screening,” J. Natl. Cancer Inst. […]
Preferably, an IC50 value is determined and used for comparative purposes. […]

[4] = system: cGMP-specific PDE from HT29 cell extracts; assay: cGMP-specific PDE inhibition; format: biochemical, human
Procedure: (Thompson, W. J., Teraski, W. L., Epstein, P. M., Strada, S. J., Advances in Cyclic Nucleotide Research, 10:69-92, 1979, which is incorporated herein by reference). In brief, a solution of defined substrate ^3H-cGMP specific activity (0.2 μM; 100,000 cpm; containing 40 mM Tris-HCl (pH 8.0), 5 mM MgCl2 and 1 mg/mL BSA) is mixed with the drug to be tested in a total volume of 400 μl. The mixture is incubated at 30° C. for 10 minutes with isolated PDE of this invention. Reactions are terminated, for example, by boiling the reaction mixture for 75 seconds. After cooling on ice, 100 μl of 0.5 mg/mL snake venom (O. Hannah venom available from Sigma) is added and incubated for 10 minutes at 30° C. This reaction is then terminated by the addition of an alcohol, e.g. 1 mL of 100% methanol. Assay samples are applied to 1 mL Dowex 1-X8 column; and washed with 1 mL of 100% methanol. The amount of radioactivity in the breakthrough and the wash from the column is combined and measured with a scintillation counter. The degree of phosphodiesterase inhibition is determined by calculating the amount of radioactivity in drug-treated reactions and comparing against a control sample (a reaction mixture lacking the tested compound but with drug solvent).

28-day study in rats = format: in vivo
[5] = Seven-day dose-range finding study in rats; conditions: seven days
COX I = target: T1, COX I (Ovis aries, UniProt P05979); assay: COX I inhibition; format: biochemical, ram; conditions: at 100 μM
T1 construct: COX-I purified from ram seminal vesicles; tissue Cayman Chemical; host or cells: ram seminal vesicles
T1 sequence (P05979 25-600): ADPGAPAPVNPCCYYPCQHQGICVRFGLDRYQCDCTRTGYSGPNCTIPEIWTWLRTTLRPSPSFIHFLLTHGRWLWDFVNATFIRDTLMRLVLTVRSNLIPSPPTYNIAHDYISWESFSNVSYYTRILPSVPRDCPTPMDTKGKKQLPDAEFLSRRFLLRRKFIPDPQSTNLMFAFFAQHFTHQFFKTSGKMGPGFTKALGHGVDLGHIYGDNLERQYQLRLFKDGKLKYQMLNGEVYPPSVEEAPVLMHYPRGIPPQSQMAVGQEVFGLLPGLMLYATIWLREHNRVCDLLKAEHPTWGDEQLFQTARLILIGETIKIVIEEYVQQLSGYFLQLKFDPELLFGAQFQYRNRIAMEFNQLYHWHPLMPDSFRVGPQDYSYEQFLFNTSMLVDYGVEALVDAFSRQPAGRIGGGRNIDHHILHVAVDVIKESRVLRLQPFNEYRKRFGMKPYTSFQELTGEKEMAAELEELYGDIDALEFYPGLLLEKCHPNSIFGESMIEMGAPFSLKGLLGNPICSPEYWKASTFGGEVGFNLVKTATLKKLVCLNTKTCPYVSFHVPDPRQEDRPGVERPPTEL

CC1=C(CC(=O)NCc2ccccc2)c2cc(F)ccc2/C1=C\c1ccncc1.Cl [Compound B, (Z)-5-fluoro-2-methyl-(4-pyridylidene)-3-(N-benzyl)indenylacetamide hydrochloride]
% Control (ACF/colon) ([1]; 0.5 g/kg diet): 100% | Mean ACF/colon (+SE) ([1]; 0.5 g/kg diet): 149 ± 14 | % Control (ACF/colon) ([1]; 1 g/kg diet): 75% | Mean ACF/colon (+SE) ([1]; 1 g/kg diet): 111 ± 9 | % Control (ACF/colon) ([1]; 1.5 g/kg diet): 89% | Mean ACF/colon (+SE) ([1]; 1.5 g/kg diet): 132 ± 4 | % Control (ACF/colon) ([1]; 2.0 g/kg diet): 72% | Mean ACF/colon (+SE) ([1]; 2.0 g/kg diet): 107 ± 15 | body weight difference versus controls ([1]; rats, Compound B in rat chow, over the experiment): less than 10% | body weight gain ([2]; ip, 1000 mg/kg): reduced body weight gain | body weight gain ([2]; po, 4000 mg/kg): body weight gains were slightly reduced | intraperitoneal LD50 ([2]; rats): greater than 1000 mg/kg | oral LD50 ([2]; rats): > 4000 mg/kg | signs of toxicity ([2]; rats, single oral doses up to and including 2000 mg/kg, 0.5% carboxy-methylcellulose vehicle): no observable signs of toxicity | side effects [3]: no significant side effects at any dose | IC50 (SW-480 cell line): 700 nM | IC50 [4]: 680 nM | liver weights (28-day study in rats; 28 days, 2000 mg/kg/day): statistically significant increase in liver weights | thyroid weights (28-day study in rats; 28 days, 2000 mg/kg/day): statistically significant increases in thyroid weights | clinical observations (28-day study in rats; 28 days, 50, 500 and 2000 mg/kg/day): no abnormal clinical observations attributed to Compound B | signs of toxicity ([5]; 50 mg/kg/day): no observable signs of toxicity | treatment-related effects ([5]; 500 mg/kg/day): an increase in absolute and relative liver weights in female rats | treatment-related effects ([5]; 2000 mg/kg/day): labored breathing and/or abnormal respiratory sounds, decreased weights gains and food consumption in male rats, and increased liver weights in female rats | COX I inhibition (COX I): less than 25%
